# In patent US10792236B2, “Dentifrice comprising zinc-amino acid complex” (Colgate-Palmolive Company, priority 2012, dated 2020):
# Values joined by “and” are separate entries in the source; they are usually repeats but may differ in a detail not shown here. Identical values can stand only once.
# Experiments:
# [1] = Dilution experiment of ZLC neat solution: visible flocculation/precipitation at 37° C.; type: physicochemical
# Procedure: Various dilutions of ZLC are prepared to evaluate its efficiency in producing visible precipitates and/or flocculation, which can be delivered in situ onto an oral surface or into a dental opening, such as open tubules.
# (§1) A neat solution of ZLC is prepared by 1), reacting 0.5 mole of ZnO powder with 1 mole of lysine HCl in 1 liter of water at room temperature for about 2 hours, and 2) collecting the supernatant through centrifugation followed by filtration using a 0.45 micron membrane. The neat solution has a zinc concentration of 2.39% by weight, and a pH of about 7.03.
# (§2) Dilution experiment is conducted by mixing the neat solution with deionized water. The neat solution is diluted by 2×, 4×, 6×, 7×, 8×, 10×, 12×, 16×, 20×, 24×, 28×, and 32×, corresponding to initial zinc concentrations of 1.20%, 0.598%, 0.398%, 0.341%, 0.299%, 0.239%, 0.199%, 0.149%, 0.120%, 0.0996%, 0.0854%, 0.0747%, by weight, respectively. The diluted samples are kept at 37° C., and the rates at which flocculation/precipitation occurred are monitored.
# [2] = pH of ZLC neat solution and final diluted samples; type: physicochemical; conditions: for final pH value: diluted sample
# Procedure: as §1, §2
# pH values of final diluted samples are suitable for oral care applications. […] These pH values were well within the range of 5.5 to 10, which defines the suitable range for oral care formulations.
# [3] = Deposition/occlusion assay on dentine slices, confocal imaging; parameters: species or system human
# Procedure: The deposition/occlusion assay is conducted using human dentine slices and the neat solution of Example 5. The dentine slices were prepared by cutting human tooth into thin dentine sections of about 800 microns in thickness, choosing a test side, sanding said test side using a sandpaper of about 600 grit, polishing said test side using a Buehler polishing cloth and 5 micron Buehler aluminum oxide, acid-etching said dentine section in 1% (by weight) citric acid solution for about 20 seconds, sonicating said dentine section for 10 minutes, and storing said dentine section in phosphate buffered saline (PBS, pH 7.4).
# For treatment, the neat solution is diluted 16-fold with water, yielding a treatment solution with initial zinc concentration of about 0.149% by weight. The dentine section is immersed in the treatment solution for 1 hour at 37° C. The treated dentine section is then removed from the treatment solution, and rinsed 4 times, each time with 1 mL of PBS. The dentine section is then dried using a paper-based tissue and examined under confocal microscope in both XYZ and XYZ modes. Subsequent treatments are conducted in the same manner.
# Dentine sections, as prepared in Example 6, are repeatedly treated with ZLC dilutions with initial zinc concentration of 0.0747% by weight. […] The dentine section is examined under the confocal microscope after each treatment.
substance,measurement,setting,value
[Zn(C6H14N2O2)2Cl]^+ Cl^− [ZLC],samples with flocculation and/or precipitation,[1]; after a total of 19 hours,all samples except the one with initial zinc concentration of 1.20%
same,initial zinc concentration of additional sample showing flocculation,[1]; two hours after mixing,0.299%
same,initial zinc concentrations of dilutions with visible flocculation,[1]; within 30 minutes from mixing with water,0.149% and 0.199%
same,final pH value,[2]; initial zinc concentration 0.0747%,7.99
same,final pH value,[2]; initial zinc concentration 0.0854%,8.13
same,final pH value,[2]; initial zinc concentration 0.0996%,8.11
same,final pH value,[2]; initial zinc concentration 0.120%,7.97
same,final pH value,[2]; initial zinc concentration 0.149%,7.99
same,final pH value,[2]; initial zinc concentration 0.199 wt %,6.80
same,final pH value,[2]; initial zinc concentration 0.239%,6.70
same,pH,"[2]; neat solution, zinc 2.39% by weight",about 7.03
same,deposition/occlusion on dentine surface,"[3]; 4 consecutive treatments, initial zinc 0.0747%, 10 minutes at 37° C. each",significant surface deposition
same,deposition/occlusion on dentine surface,"[3]; 12 consecutive treatments, initial zinc 0.0747%, 10 minutes at 37° C. each",complete surface coverage
same,visible precipitation during treatment,"[3]; 32-fold dilution, initial zinc 0.0747%, 10 minutes at 37° C.",no precipitation is observed by naked eyes
same,thickness of surface deposits,"[3]; after second treatment, 16-fold dilution, zinc about 0.149%",≥ 10 microns
same,thickness of surface deposits,"[3]; after third treatment, 16-fold dilution, zinc about 0.149%",≥ 25 microns
same,deposition/occlusion on dentine surface,"[3]; first treatment, neat solution diluted 16-fold, zinc about 0.149%, 1 hour at 37° C.",noticeable deposition
same,deposition/occlusion on dentine surface,"[3]; second treatment, 16-fold dilution, zinc about 0.149%, 1 hour at 37° C. each","complete surface coverage, including blocking of substantially all tubule openings"
same,deposition/occlusion on dentine surface,"[3]; third treatment, 16-fold dilution, zinc about 0.149%, 1 hour at 37° C. each",complete surface coverage and complete blocking of tubule openings
